For one assay, the system named is TDP1. The assay can be described thus: TDP1 inhibitory activity of Axinella-derived peptides. The assay is classed as biochemical. To be noted: Figure S2.
The target of the next assay is full-length TDP1 (Homo sapiens, UniProt Q9NUW8). The assay can be described thus: Steady-state. The assay is classed as biochemical.
In assay [1] the test system is N-terminal truncated form of TDP1 (Δ147TDP1). Type of assay: biochemical, human. The settings on record: N-terminally truncated TDP1 lacking regulatory domain (Δ1–147); FRET assay, PBS pH 7.4, 80 mM KCl, 1 mM TCEP.
Setting [2] is: full-length TDP1 0.5 nM, 0.01–3 μM FRET substrate, recifin A 0, 0.2, 0.5, 1, 2 μM, PBS pH 7.4, 80 mM KCl, 1 mM TCEP, quadruplicate, 1 h.
Where [3] appears, read: full-length TDP1, Figure S10 (Km and Vmax ratios).

“Also recorded” adds a separate entry of the source. Positions of bridges follow the written chain, without caps; N, C: chain ends. Non-standard residues stand in square brackets, D forms with d. No end group written: not given here. pGlu = O=C1CC[C@@H](C(=O)O)N1

Chain of full-length TDP1 (Q9NUW8 whole entry, the tested form may be a part): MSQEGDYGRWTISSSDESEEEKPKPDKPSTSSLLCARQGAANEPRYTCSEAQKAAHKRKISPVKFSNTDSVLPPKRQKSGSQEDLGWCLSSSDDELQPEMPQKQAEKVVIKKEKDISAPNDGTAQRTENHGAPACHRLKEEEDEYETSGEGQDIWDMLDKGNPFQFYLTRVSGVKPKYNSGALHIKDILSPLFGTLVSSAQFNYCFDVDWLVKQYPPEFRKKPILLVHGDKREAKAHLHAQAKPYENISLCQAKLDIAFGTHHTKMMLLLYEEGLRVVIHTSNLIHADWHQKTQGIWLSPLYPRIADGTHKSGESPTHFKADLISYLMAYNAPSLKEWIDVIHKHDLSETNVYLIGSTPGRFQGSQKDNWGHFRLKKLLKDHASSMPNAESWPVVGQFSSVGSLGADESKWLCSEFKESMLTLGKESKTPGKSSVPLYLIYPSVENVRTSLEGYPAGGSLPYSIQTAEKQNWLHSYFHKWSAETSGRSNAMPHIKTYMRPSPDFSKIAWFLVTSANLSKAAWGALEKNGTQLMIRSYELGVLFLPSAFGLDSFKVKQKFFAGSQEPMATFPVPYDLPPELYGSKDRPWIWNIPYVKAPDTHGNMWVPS

On to “[pGlu]EAFCYSDRFCQNYIGSIPDCCFGRGSYSFELQPPPWECYQC (disulfide 5-21, 11-39, 22-42) [recifin A]”, for which the “TDP1 inhibitory activity relative to the other Axinella peptides” value in the assay with TDP1 is given as “most active peptide”. On full-length TDP1 (setting [2]), the “Km for the substrate, effect of recifin A (in words)” value was “increased the Km for the substrate” and the “Vmax, effect of recifin A (in words)” value is on record as “modest increase of the observed Vmax value; also recorded: increased the Vmax of the enzyme”. At full-length TDP1 (setting [3]), the “recifin A-dependent increase in the Km for the substrate” value was “approximately 6 fold” and the “recifin A-dependent increase of observed Vmax” value is recorded as “approximately 1.6 fold”. Moreover, the “inhibition of Δ147TDP1 enzymatic activity (in words)” value in assay [1] is on record as “not affecting the activity of a truncated catalytic domain of TDP1; also recorded: only a minimal effect; also recorded: inhibited full-length TDP1 but not N-terminally truncated TDP1 (Δ147TDP1); also recorded: does not affect the enzymatic activity of truncated TDP1; also recorded: unaffected by recifin A”.

Values taken from paper PMC8921975 (Journal of the American Chemical Society, 2020).
